According to patent publication US20260258050A1, “IMMUNOMODULATOR” (HITGEN INC., priority 2023, published 2026):

Experiments:
Human IL-17A [1] = target: T1, Human IL-17A (Homo sapiens, UniProt Q16552); assay: IL-17A enzyme-linked immunosorbent assay (competitive ELISA, IL-17A/IL-17Ra receptor-ligand binding); set-up: purchased Sino Biological Inc. 12047-H07B; settings: human IL-17A coated plate, human IL-17Ra, read-out: IC50, inhibitory activity of compounds on human IL-17A
T1 sequence (Q16552 20-155 limits assumed): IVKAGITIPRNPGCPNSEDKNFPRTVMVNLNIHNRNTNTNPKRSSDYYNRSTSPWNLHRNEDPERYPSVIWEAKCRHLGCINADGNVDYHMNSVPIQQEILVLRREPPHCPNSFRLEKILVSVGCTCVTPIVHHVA
In short: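 Competitive ELISA with plates coated with human IL-17A at 0.2 μg/ml, blocked with 5% skim milk. Compound pre-incubated with IL-17A 10 min at 25 °C, then 16 nM IL-17Ra stock added for 30 min. Bound receptor detected by anti-Fc HRP/TMB, A450. IC50 from variable-slope fit of blank-corrected residual activity.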

Human IL-17A [2] = target: T1, Human IL-17A; assay: Inhibition of human IL-17A protein-induced GROα/CXCL1 production in HT-29 cells; format: cell-based; set-up: purchased R&D 317-ILB; host or cells: added exogenously to HT-29 cells; settings: 30 ng/mL human IL-17A protein, 48 h, GROα in supernatant by ELISA kit, read-out: Inhibitory IC50 of compounds on HT-29 cell GROα/CXCL1
In short: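 Compound dilutions were preincubated 1 h at 37 °C with 30 ng/mL human IL-17A, then added to HT-29 cells (5×10^4/well) for 48 h at 37 °C. GROα in supernatant quantified by ELISA; IC50 for inhibition of its production. Positive control: IL-17A antibody at […].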

Structure (SMILES) | IC50 (Human IL-17A [1]) | IC50 (Human IL-17A [2])
Cc1[nH]nc2c1-c1cc(F)c(NC(=O)[C@@H](NC(=O)c3ccnn3C(C)C)C(C3CC3)C3CC3)cc1CN(C(C)C(F)(F)F)C(=O)C2 (mixture of isomers) [compound 173] | ≤ 50 nM | ≤ 100 nM
Cc1[nH]nc2c1-c1cc(F)c(NC(=O)[C@@H](NC(=O)c3ccnn3C(C)C)C(C3CC3)C3CC3)cc1CN(C(C)C(F)(F)F)C(=O)C2 (single isomer, unassigned) [compound 186a] | ≤ 50 nM | ≤ 100 nM
Cc1[nH]nc2c1-c1cnc(NC(=O)[C@@H](NC(=O)c3ccnn3C(C)C3CC3)C(C3CC3)C3CC3)cc1COCC2 (single isomer, unassigned) [compound 188a] | ≤ 50 nM | 100 to 500 nM
Cc1[nH]nc2c1-c1cnc(NC(=O)[C@@H](NC(=O)c3ccnn3C(C)C3CC3)C(C3CC3)C3CC3)cc1COCC2 (single isomer, unassigned) [compound 188b] | ≤ 50 nM | ≤ 100 nM
Cc1[nH]nc2c1-c1cnc(NC(=O)[C@@H](NC(=O)c3ccnn3C(C)CF)C(C3CC3)C3CC3)cc1COCC2 (single isomer, unassigned) [compound 189a] | ≤ 50 nM | ≤ 100 nM
Cc1[nH]nc2c1-c1cnc(NC(=O)[C@@H](NC(=O)c3ccnn3C(C)CF)C(C3CC3)C3CC3)cc1COCC2 (single isomer, unassigned) [compound 189b] | ≤ 50 nM | 100 to 500 nM
Cc1[nH]nc2c1-c1ccc(NC(=O)[C@@H](NC(=O)c3ccnn3C)C(C3CC3)C3CC3)cc1COCC2 [compound 2] | ≤ 50 nM | 100 to 500 nM
Cc1[nH]nc2c1-c1ccc(NC(=O)[C@@H](NC(=O)c3ccnn3C(C)C)C(C3CC3)C3CC3)cc1CN(C)C(=O)C2 [compound 22] | ≤ 50 nM | ≤ 100 nM
CCn1nccc1C(=O)N[C@H](C(=O)Nc1ccc2c(c1)CN(C)C(=O)Cc1n[nH]c(C)c1-2)C(C1CC1)C1CC1 [compound 23] | ≤ 50 nM | ≤ 100 nM
Cc1[nH]nc2c1-c1ccc(NC(=O)[C@@H](NC(=O)c3ccnn3C(C)C)C(C3CC3)C3CC3)cc1CNC(=O)C2 [compound 27] | ≤ 50 nM | 100 to 500 nM
CCn1nccc1C(=O)N[C@H](C(=O)Nc1ccc2c(c1)CNC(=O)Cc1n[nH]c(C)c1-2)C(C1CC1)C1CC1 [compound 28] | ≤ 50 nM | 100 to 500 nM
[2H]C([2H])([2H])C([2H])(n1nccc1C(=O)N[C@H](C(=O)Nc1ccc2c(c1)COCCc1n[nH]c(C)c1-2)C(C1CC1)C1CC1)C([2H])([2H])[2H] [compound 52] | ≤ 50 nM | ≤ 100 nM
[2H]C([2H])([2H])C([2H])(n1nccc1C(=O)N[C@H](C(=O)Nc1cc2c(cn1)-c1c(n[nH]c1C)CCOC2)C(C1CC1)C1CC1)C([2H])([2H])[2H] [compound 54] | ≤ 50 nM | ≤ 100 nM
Cc1[nH]nc2c1-c1cc(F)c(NC(=O)[C@@H](NC(=O)c3ccnn3CCC(F)F)C(C3CC3)C3CC3)cc1COCC2 [compound 65] | ≤ 50 nM | 100 to 500 nM
Cc1[nH]nc2c1-c1cc(F)c(NC(=O)[C@@H](NC(=O)c3ccnn3CCC(O)C(F)(F)F)C(C3CC3)C3CC3)cc1COCC2 (stereo partly drawn) [compound 81] | ≤ 50 nM | 100 to 500 nM
Cc1[nH]nc2c1-c1cc(F)c(NC(=O)[C@@H](NC(=O)c3ccnn3CCCC(F)(F)F)C(C3CC3)C3CC3)cc1COCC2 [compound 84] | ≤ 50 nM | ≤ 100 nM
Cc1[nH]nc2c1-c1cc(F)c(NC(=O)[C@@H](NC(=O)c3ccnn3CCCF)C(C3CC3)C3CC3)cc1COCC2 [compound 86] | ≤ 50 nM | ≤ 100 nM
Cc1[nH]nc2c1-c1cc(F)c(NC(=O)[C@@H](NC(=O)c3ccnn3CCC(F)(F)F)C(C3CC3)C3CC3)cc1COCC2 [compound 88] | 50 to 150 nM | ≤ 100 nM
[2H]C([2H])([2H])C([2H])([2H])n1nccc1C(=O)N[C@H](C(=O)Nc1cc2c(cc1F)-c1c(n[nH]c1C)CCOC2)C(C1CC1)C1CC1 [compound 90] | ≤ 50 nM | 100 to 500 nM
CCOCCn1nccc1C(=O)N[C@H](C(=O)Nc1cc2c(cc1F)-c1c(n[nH]c1C)CCOC2)C(C1CC1)C1CC1 [compound 100] | ≤ 50 nM | 100 to 500 nM
Cc1[nH]nc2c1-c1cc(F)c(NC(=O)[C@@H](NC(=O)c3ccnn3CCOC3CC3)C(C3CC3)C3CC3)cc1COCC2 [compound 102] | ≤ 50 nM | ≤ 100 nM
Cc1[nH]nc2c1-c1cc(F)c(NC(=O)[C@@H](NC(=O)c3ccnn3CCOCC(F)(F)F)C(C3CC3)C3CC3)cc1COCC2 [compound 104] | ≤ 50 nM | ≤ 100 nM
Cc1[nH]nc2c1-c1cc(F)c(NC(=O)[C@@H](NC(=O)c3cnnn3CCOC(F)F)C(C3CC3)C3CC3)cc1COCC2 [compound 108] | ≤ 50 nM | 100 to 500 nM
Cc1[nH]nc2c1-c1cc(F)c(NC(=O)[C@@H](NC(=O)c3ccnn3CCOC(C)(C)C)C(C3CC3)C3CC3)cc1COCC2 [compound 113] | ≤ 50 nM | 100 to 500 nM

Second part, the compound after the results:

IC50 (Human IL-17A [1]) | IC50 (Human IL-17A [2]) | Structure (SMILES)
≤ 50 nM | ≤ 100 nM | Cc1[nH]nc2c1-c1cc(F)c(NC(=O)[C@@H](NC(=O)c3ccnn3C(C)C3CC3)C(C3CC3)C3CC3)cc1COCC2 (single isomer, unassigned) [compound 41a]
≤ 50 nM | ≤ 100 nM | Cc1[nH]nc2c1-c1cc(F)c(NC(=O)[C@@H](NC(=O)c3ccnn3C(C)C3CC3)C(C3CC3)C3CC3)cc1COCC2 (single isomer, unassigned) [compound 41b]
≤ 50 nM | ≤ 100 nM | Cc1[nH]nc2c1-c1cc(F)c(NC(=O)[C@@H](NC(=O)c3ccnn3C(C)CF)C(C3CC3)C3CC3)cc1COCC2 (single isomer, unassigned) [compound 42a]
≤ 50 nM | 100 to 500 nM | Cc1[nH]nc2c1-c1cc(F)c(NC(=O)[C@@H](NC(=O)c3ccnn3C(C)CF)C(C3CC3)C3CC3)cc1COCC2 (single isomer, unassigned) [compound 42b]
≤ 50 nM | ≤ 100 nM | Cc1[nH]nc2c1-c1cc(F)c(NC(=O)[C@@H](NC(=O)c3ccnn3C(C)C)C(C3CC3)C3CC3)cc1COCC2 [compound 15]
≤ 50 nM | 100 to 500 nM | CCn1nccc1C(=O)N[C@H](C(=O)Nc1cc2c(cc1F)-c1c(n[nH]c1C)CCOC2)C(C1CC1)C1CC1 [compound 16]
≤ 50 nM | 100 to 500 nM | Cc1[nH]nc2c1-c1cc(F)c(NC(=O)[C@@H](NC(=O)c3ccnn3C)C(C3CC3)C3CC3)cc1COCC2 [compound 17]
≤ 50 nM | 100 to 500 nM | CCn1nccc1C(=O)N[C@H](C(=O)Nc1cc2c(cc1F)-c1c(n[nH]c1C)CCOC2)[C@H]1CC[C@H](C)CC1 [compound 46]
≤ 50 nM | 100 to 500 nM | Cc1[nH]nc2c1-c1cc(F)c(NC(=O)[C@@H](NC(=O)c3ccnn3C(C)C)C3CCCCC3)cc1COCC2 [compound 48]
≤ 50 nM | 100 to 500 nM | COCCCn1nccc1C(=O)N[C@H](C(=O)Nc1cc2c(cc1F)-c1c(n[nH]c1C)CCOC2)C(C1CC1)C1CC1 [compound 58]
≤ 50 nM | 100 to 500 nM | Cc1[nH]nc2c1-c1cc(F)c(NC(=O)[C@@H](NC(=O)c3ccnn3CC3CC3)C(C3CC3)C3CC3)cc1COCC2 [compound 59]
≤ 50 nM | 100 to 500 nM | Cc1[nH]nc2c1-c1cc(F)c(NC(=O)[C@@H](NC(=O)c3ccnn3CC3CCC3)C(C3CC3)C3CC3)cc1COCC2 [compound 60]
≤ 50 nM | 100 to 500 nM | CSCCn1nccc1C(=O)N[C@H](C(=O)Nc1cc2c(cc1F)-c1c(n[nH]c1C)CCOC2)C(C1CC1)C1CC1 [compound 61]
≤ 50 nM | 100 to 500 nM | CCCn1nccc1C(=O)N[C@H](C(=O)Nc1cc2c(cc1F)-c1c(n[nH]c1C)CCOC2)C(C1CC1)C1CC1 [compound 62]
≤ 50 nM | 100 to 500 nM | [2H]C([2H])(C1CC1)n1nccc1C(=O)N[C@H](C(=O)Nc1cc2c(cc1F)-c1c(n[nH]c1C)CCOC2)C(C1CC1)C1CC1 [compound 76]
≤ 50 nM | 100 to 500 nM | Cc1[nH]nc2c1-c1cc(F)c(NC(=O)[C@@H](NC(=O)c3ccnn3CC(C)(F)F)C(C3CC3)C3CC3)cc1COCC2 [compound 87]
≤ 50 nM | ≤ 100 nM | [2H]C([2H])([2H])C([2H])(n1nccc1C(=O)N[C@H](C(=O)Nc1cc2c(cc1F)-c1c(n[nH]c1C)CCOC2)C(C1CC1)C1CC1)C([2H])([2H])[2H] [compound 89]
≤ 50 nM | 100 to 500 nM | Cc1[nH]nc2c1-c1cc(F)c(NC(=O)[C@@H](NC(=O)c3ccnn3CCOC(C)C)C(C3CC3)C3CC3)cc1COCC2 [compound 98]
50 to 150 nM | 100 to 500 nM | COCC(COC)n1nccc1C(=O)N[C@H](C(=O)Nc1cc2c(cc1F)-c1c(n[nH]c1C)CCOC2)C(C1CC1)C1CC1 [compound 99]
≤ 50 nM | ≤ 100 nM | Cc1[nH]nc2c1-c1cc(F)c(NC(=O)[C@@H](NC(=O)c3ccnn3C[C@@H]3C[C@H]3F)C(C3CC3)C3CC3)cc1COCC2 [compound 101]
≤ 50 nM | 100 to 500 nM | Cc1[nH]nc2c1-c1cc(F)c(NC(=O)[C@@H](NC(=O)c3ccnn3CC3(C#N)CC3)C(C3CC3)C3CC3)cc1COCC2 [compound 114]
